According to patent US20250197408A1, “CRYSTALLINE FORMS AND SALTS OF A PI3K INHIBITOR AND METHODS OF MAKING AND METHODS OF USE THEREOF” (Totus Medicines Inc., priority 2022, published 2025):
In brackets after ≈: the same amount, converted by molar mass.

Assays:
[1] = Solubility in 7 aqueous pH buffers and bio-relevant fluids at 37° C. (HPLC of supernatant; residual solids by XRPD); assay type: physicochemical; conditions: for solubility at 2 h / solubility at 24 h: thermodynamic from solid
Method: 20 mg of the free base Form A of Compound I was weighed into a 20 mL glass vial. Amounts of the salts equivalent to 20 mg anhydrous free base were weighed into a glass vial. 10 mL of solubility medium was added. The resulting suspensions/solutions were stirred at 37° C. at 400 rpm and sampled at 2 hours and at 24 hours, respectively. The samples were centrifuged at 37° C. at 14,000 rpm for 5 min. Supernatants were analyzed by HPLC and pH meter for solubility and pH value, respectively. Residual solids (wet cakes) from the 24 hours samples were also characterized by XRPD to determine physical form.
Residual solids after the solubility test were analyzed by XRPD.

[2] = Dynamic vapor sorption (DVS) analysis at 25° C.; assay type: physicochemical
Method: In one embodiment, the crystalline forms are characterized by Dynamic Vapor Sorption (DVS). The DVS profile is typically expressed by a diagram plotting the sample relative humidity (RH) versus the change in mass (%). The DVS profile provides information on hygroscopicity of the crystalline form at different RH conditions.
A DVS (dynamic vapor sorption) analysis at 25° C. was carried out on Form A** of Compound I benzenesulfonate salt as shown in FIG. 3D.

[3] = ES1, pH 1.2 HCl solution (0.1N), 37° C.
[4] = ES2, pH 4.5 acetate buffer (50 mM), 37° C.
[5] = ES3, pH 6.8 phosphate buffer (50 mM), 37° C.
[6] = ES4, pH 7.4 phosphate buffer (50 mM), 37° C.
[7] = aqueous buffer, ES2, pH 4.5 acetate buffer (50 mM), 37° C.
[8] = aqueous buffer, ES3, pH 6.8 phosphate buffer (50 mM), 37° C.
[9] = aqueous buffer, ES4, pH 7.4 phosphate buffer (50 mM), 37° C.
[10] = simulated gastric fluid, ES1, pH 1.2 HCl solution (0.1N), 37° C.
[11] = simulated gastric fluid, ES5, SGF, pH 2.0, 37° C.

Compound	Solubility for 2 h [1, 3] [µg/mL]	pH of supernatant, solubility for 2 h (pH) [1, 3]	Solubility for 24 h [1, 3] [µg/mL]	pH of supernatant, solubility for 24 h (pH) [1, 3]	Solubility for 2 h [1, 4] [µg/mL]	pH of supernatant, solubility for 2 h (pH) [1, 4]	Solubility for 24 h [1, 4] [µg/mL]	pH of supernatant, solubility for 24 h (pH) [1, 4]	pH of supernatant, solubility for 2 h (pH) [1, 5]	pH of supernatant, solubility for 24 h (pH) [1, 5]	pH of supernatant, solubility for 2 h (pH) [1, 6]	pH of supernatant, solubility for 24 h (pH) [1, 6]	pH of supernatant, solubility for 2 h (pH) ([1]; ES5, SGF, pH 2.0, 37° C.)	pH of supernatant, solubility for 24 h (pH) ([1]; ES5, SGF, pH 2.0, 37° C.)	pH of supernatant, solubility for 2 h (pH) ([1]; ES6, FaSSIF-v1, pH 6.5, 37° C.)	pH of supernatant, solubility for 24 h (pH) ([1]; ES6, FaSSIF-v1, pH 6.5, 37° C.)	pH of supernatant, solubility for 2 h (pH) ([1]; ES7, FeSSIF-v1, pH 5.0, 37° C.)	pH of supernatant, solubility for 24 h (pH) ([1]; ES7, FeSSIF-v1, pH 5.0, 37° C.)	hygroscopicity / water sorption behavior (DVS) [2]	solid form of the sample after the DVS test [2]	further results
C=CC(=O)NCC(=O)N1CCN(Cc2cc3c(N4CCOCC4)nc(-c4cnc(NC(=O)OC)cc4C(F)(F)F)nn3c2)CC1.O=S(=O)(O)c1ccccc1 [Methyl (5-(6-((4-(acryloylglycyl)piperazin-1-yl)methyl)-4-morpholinopyrrolo[2,1-f][1,2,4]triazin-2-yl)-4-(trifluoromethyl)pyridin-2-yl) carbamate benzenesulfonate salt]	300	(1.2)	400	(1.0)	200	(4.5)	300	(4.4)	(6.7)	(6.6)	(7.3)	(7.3)	(2.0)	(1.8)	(6.3)	(6.2)	(5.0)	(4.9)	slightly hygroscopic	still the Form A** of Compound I benzenesulfonate salt	solubility compared among forms ([1]; 37° C., 2 h and 24 h, 7 aqueous pH buffers and bio-relevant fluids): overall lower solubility than that of Form A of Compound I; Solubility for 2 h [1, 5]: 8.5 µg/mL; Solubility for 24 h [1, 5]: 6.9 µg/mL; Solubility for 2 h [1, 6]: 5.7 µg/mL; Solubility for 24 h [1, 6]: 4.1 µg/mL; Solubility for 2 h ([1]; ES5, SGF, pH 2.0, 37° C.): 200 µg/mL; Solubility for 24 h ([1]; ES5, SGF, pH 2.0, 37° C.): 300 µg/mL; Solubility for 2 h ([1]; ES6, FaSSIF-v1, pH 6.5, 37° C.): 19.6 µg/mL; Solubility for 24 h ([1]; ES6, FaSSIF-v1, pH 6.5, 37° C.): 18.6 µg/mL; Solubility for 2 h ([1]; ES7, FeSSIF-v1, pH 5.0, 37° C.): 700 µg/mL; Solubility for 24 h ([1]; ES7, FeSSIF-v1, pH 5.0, 37° C.): 800 µg/mL; water uptake (DVS) ([2]; from 40% to 95% RH): about 1.4%
C=CC(=O)NCC(=O)N1CCN(Cc2cc3c(N4CCOCC4)nc(-c4cnc(NC(=O)OC)cc4C(F)(F)F)nn3c2)CC1.O=C(O)/C=C\C(=O)O [Form B* of Compound I maleate salt, Methyl (5-(6-((4-(acryloylglycyl)piperazin-1-yl)methyl)-4-morpholinopyrrolo[2,1-f][1,2,4]triazin-2-yl)-4-(trifluoromethyl)pyridin-2-yl) carbamate maleate salt]	1400	(1.3)	1500	(1.3)	>2000	(4.5)	300	(4.5)	(6.6)	(6.6)	(7.3)	(7.3)	(2.0)	(2.0)	(6.1)	(6.1)	(5.0)	(5.0)	nearly monotonic water sorption-desorption behavior depending on RH	still Form B* of Compound I maleate salt	Solubility for 2 h [1, 5]: 6.6 µg/mL; Solubility for 24 h [1, 5]: 4.7 µg/mL; Solubility for 2 h [1, 6]: 1.5 µg/mL; Solubility for 24 h [1, 6]: 1.4 µg/mL; Solubility for 2 h ([1]; ES5, SGF, pH 2.0, 37° C.): >2000 µg/mL; Solubility for 24 h ([1]; ES5, SGF, pH 2.0, 37° C.): >2000 µg/mL; Solubility for 2 h ([1]; ES6, FaSSIF-v1, pH 6.5, 37° C.): 22.9 µg/mL; Solubility for 24 h ([1]; ES6, FaSSIF-v1, pH 6.5, 37° C.): 16.2 µg/mL; Solubility for 2 h ([1]; ES7, FeSSIF-v1, pH 5.0, 37° C.): 1100 µg/mL; Solubility for 24 h ([1]; ES7, FeSSIF-v1, pH 5.0, 37° C.): 1000 µg/mL; water uptake (DVS) ([2]; from 40% to 90% RH): 2.7%
C=CC(=O)NCC(=O)N1CCN(Cc2cc3c(N4CCOCC4)nc(-c4cnc(NC(=O)OC)cc4C(F)(F)F)nn3c2)CC1 [Form A of Compound I, methyl (5-(6-((4-(acryloylglycyl)piperazin-1-yl)methyl)-4-morpholinopyrrolo[2,1-f][1,2,4]triazin-2-yl)-4-(trifluoromethyl)pyridin-2-yl) carbamate]		(1.2)		(1.0)		(4.5)		(4.4)	(6.8)	(6.7)	(7.5)	(7.4)	(2.0)	(1.9)	(6.5)	(6.5)	(5.0)	(5.0)	slightly hygroscopic	still the free base Pattern A	solubility at 2 h [1, 7]: 200 µg/mL (≈ 317 µM); solubility at 24 h [1, 7]: 300 µg/mL (≈ 475 µM); solubility at 2 h [1, 8]: 2.9 µg/mL (≈ 4.59 µM); solubility at 24 h [1, 8]: 5.1 µg/mL (≈ 8.07 µM); solubility at 2 h [1, 9]: 2.2 µg/mL (≈ 3.48 µM); solubility at 24 h [1, 9]: 3.8 µg/mL (≈ 6.02 µM); solubility at 2 h [1, 10]: 1200 µg/mL (≈ 1900 µM); solubility at 24 h [1, 10]: 1000 µg/mL (≈ 1580 µM); solubility at 2 h [1, 11]: > 2000 µg/mL; solubility at 24 h [1, 11]: > 2000 µg/mL; solubility at 2 h ([1]; ES6, FaSSIF-v1, pH 6.5, 37° C.): 9.4 µg/mL (≈ 14.9 µM); solubility at 24 h ([1]; ES6, FaSSIF-v1, pH 6.5, 37° C.): 11.5 µg/mL (≈ 18.2 µM); solubility at 2 h ([1]; ES7, FeSSIF-v1, pH 5.0, 37° C.): 600 µg/mL (≈ 950 µM); solubility at 24 h ([1]; ES7, FeSSIF-v1, pH 5.0, 37° C.): 600 µg/mL (≈ 950 µM); water uptake (DVS) ([2]; from 40% to 95% RH): about 1.4%
